Species: Rattus norvegicus
Experiment: DrugMatrix - Regimen: Daily Repeat
Format: toxicity, organism-based, Sprague-Dawley
Design: regimen Daily Repeat, gender Male, age 6-8 weeks
Conditions: in vivo, po, route oral GAVAGE, […]; for ABSOLUTE BASOPHIL / ABSOLUTE EOSINOPHIL / ABSOLUTE LYMPHOCYTE / ABSOLUTE MONOCYTE / ABSOLUTE SEGMENTED NEUTROPHIL / BASOPHIL / EOSINOPHIL / ERYTHROCYTE COUNT / HEMATOCRIT / HEMOGLOBIN / LEUKOCYTE COUNT / LYMPHOCYTE / MEAN CORPUSCULAR HEMOGLOBIN / MEAN CORPUSCULAR HEMOGLOBIN CONCENTRATION / MEAN CORPUSCULAR VOLUME / MONOCYTE / NEUTROPHIL / NUCLEATED RED BLOOD CELLS / PLATELET COUNT: tissue Blood; for ALANINE AMINOTRANSFERASE / ALBUMIN / ALKALINE PHOSPHATASE / ASPARTATE AMINOTRANSFERASE / BLOOD UREA NITROGEN / CARBON DIOXIDE / CHLORIDE / CHOLESTEROL / CREATINE PHOSPHOKINASE / CREATININE / GLUCOSE / LACTATE DEHYDROGENASE / LIPASE / PHOSPHORUS / POTASSIUM / SODIUM / TOTAL BILIRUBIN / TOTAL PROTEIN / URIC ACID: tissue Plasma
[1] = 0 mg/kg, 72 h, dose level Control, time 3 day
[2] = 0 mg/kg, 120 h, dose level Control, time 5 day
[3] = 280 mg/kg, 72 h, dose level High, time 3 day

## CC/C(=C(/CC)c1ccc(O)cc1)c1ccc(O)cc1 [DIETHYLSTILBESTROL]
[1]
  ABSOLUTE BASOPHIL: 0 CELLS/uL
  ABSOLUTE EOSINOPHIL: 14 CELLS/uL
  ABSOLUTE LYMPHOCYTE: 11144.67 CELLS/uL
  ABSOLUTE MONOCYTE: 22.5 CELLS/uL
  ABSOLUTE SEGMENTED NEUTROPHIL: 535.5 CELLS/uL
  BASOPHIL: 0%
  EOSINOPHIL: 0.17%
  ERYTHROCYTE COUNT: 5.08 x10E6/uL
  HEMATOCRIT: 32.32%
  HEMOGLOBIN: 12.87 G/DL
  LEUKOCYTE COUNT: 11.72 x10E3/uL
  LYMPHOCYTE: 94.67%
  MEAN CORPUSCULAR HEMOGLOBIN: 25.37 pg
  MEAN CORPUSCULAR HEMOGLOBIN CONCENTRATION: 39.85 G/DL
  MEAN CORPUSCULAR VOLUME: 63.58 fL
  MONOCYTE: 0.17%
  NEUTROPHIL: 5%
  NUCLEATED RED BLOOD CELLS: 0 /100WBC
  PLATELET COUNT: 1084 x10E3/uL
  ALANINE AMINOTRANSFERASE: 67.5 u/L
  ALBUMIN: 4.02 G/DL
  ALKALINE PHOSPHATASE: 374.17 u/L
  ASPARTATE AMINOTRANSFERASE: 83.5 u/L
  BLOOD UREA NITROGEN: 14.5 mg/dL
  CARBON DIOXIDE: 30 mmol/L
  CHLORIDE: 100.5 MEQ/L
  CHOLESTEROL: 71.33 mg/dL
  CREATINE PHOSPHOKINASE: 268.33 u/L
  CREATININE: 0.16 mg/dL
  GLUCOSE: 170.5 mg/dL
  LACTATE DEHYDROGENASE: 81.17 u/L
  LIPASE: 16.67 u/L
  PHOSPHORUS: 10.07 mg/dL
  POTASSIUM: 5.03 MEQ/L
  SODIUM: 142.92 MEQ/L
  TOTAL BILIRUBIN: 0.17 mg/dL
  TOTAL PROTEIN: 5.63 G/DL
  URIC ACID: 0.5 mg/dL
[2]
  ABSOLUTE BASOPHIL: 0 CELLS/uL
  ABSOLUTE EOSINOPHIL: 37.5 CELLS/uL
  ABSOLUTE LYMPHOCYTE: 8049.5 CELLS/uL
  ABSOLUTE MONOCYTE: 82.83 CELLS/uL
  ABSOLUTE SEGMENTED NEUTROPHIL: 646.83 CELLS/uL
  BASOPHIL: 0%
  EOSINOPHIL: 0.5%
  ERYTHROCYTE COUNT: 5.36 x10E6/uL
  HEMATOCRIT: 33.9%
  HEMOGLOBIN: 13.02 G/DL
  LEUKOCYTE COUNT: 8.82 x10E3/uL
  LYMPHOCYTE: 90.17%
  MEAN CORPUSCULAR HEMOGLOBIN: 24.32 pg
  MEAN CORPUSCULAR HEMOGLOBIN CONCENTRATION: 38.42 G/DL
  MEAN CORPUSCULAR VOLUME: 63.32 fL
  MONOCYTE: 1.17%
  NEUTROPHIL: 8.17%
  NUCLEATED RED BLOOD CELLS: 0.17 /100WBC
  PLATELET COUNT: 1231.5 x10E3/uL
  ALANINE AMINOTRANSFERASE: 62 u/L
  ALBUMIN: 3.97 G/DL
  ALKALINE PHOSPHATASE: 303.67 u/L
  ASPARTATE AMINOTRANSFERASE: 84.5 u/L
  BLOOD UREA NITROGEN: 14.83 mg/dL
  CARBON DIOXIDE: 31.83 mmol/L
  CHLORIDE: 97 MEQ/L
  CHOLESTEROL: 68.83 mg/dL
  CREATINE PHOSPHOKINASE: 411.33 u/L
  CREATININE: 0.16 mg/dL
  GLUCOSE: 170.17 mg/dL
  LACTATE DEHYDROGENASE: 88.5 u/L
  LIPASE: 9.5 u/L
  PHOSPHORUS: 9.98 mg/dL
  POTASSIUM: 5.72 MEQ/L
  SODIUM: 141.62 MEQ/L
  TOTAL BILIRUBIN: 0.1 mg/dL
  TOTAL PROTEIN: 5.67 G/DL
  URIC ACID: 0.52 mg/dL
[3]
  ABSOLUTE BASOPHIL: 0 CELLS/uL
  ABSOLUTE EOSINOPHIL: 42 CELLS/uL
  ABSOLUTE LYMPHOCYTE: 6341.67 CELLS/uL
  ABSOLUTE MONOCYTE: 46.67 CELLS/uL
  ABSOLUTE SEGMENTED NEUTROPHIL: 836.33 CELLS/uL
  BASOPHIL: 0%
  EOSINOPHIL: 0.67%
  ERYTHROCYTE COUNT: 5.06 x10E6/uL
  HEMATOCRIT: 31.5%
  HEMOGLOBIN: 12.2 G/DL
  LEUKOCYTE COUNT: 7.27 x10E3/uL
  LYMPHOCYTE: 87%
  MEAN CORPUSCULAR HEMOGLOBIN: 24.13 pg
  MEAN CORPUSCULAR HEMOGLOBIN CONCENTRATION: 38.77 G/DL
  MEAN CORPUSCULAR VOLUME: 62.27 fL
  MONOCYTE: 0.67%
  NEUTROPHIL: 11.67%
  NUCLEATED RED BLOOD CELLS: 0 /100WBC
  PLATELET COUNT: 1040.67 x10E3/uL
  ALANINE AMINOTRANSFERASE: 64 u/L
  ALBUMIN: 3.57 G/DL
  ALKALINE PHOSPHATASE: 625.67 u/L
  ASPARTATE AMINOTRANSFERASE: 73 u/L
  BLOOD UREA NITROGEN: 16 mg/dL
  CARBON DIOXIDE: 23 mmol/L
  CHLORIDE: 107.33 MEQ/L
  CHOLESTEROL: 31.33 mg/dL
  CREATINE PHOSPHOKINASE: 341 u/L
  CREATININE: 0.17 mg/dL
  GLUCOSE: 156.67 mg/dL
  LACTATE DEHYDROGENASE: 103.33 u/L
  LIPASE: 8 u/L
  PHOSPHORUS: 9 mg/dL
  POTASSIUM: 5.01 MEQ/L
  SODIUM: 147.7 MEQ/L
  TOTAL BILIRUBIN: 0.27 mg/dL
  TOTAL PROTEIN: 5.5 G/DL
  URIC ACID: 0.53 mg/dL
